Results on 23 molecules are retold here after patent US6555556B1, “Benzamidine derivatives” (Sankyo Company, Limited, priority 1999, dated 2003).

Counter-ions that a name gives are not always drawn.

For one assay, the target named is T1, human factor Xa (Homo sapiens, UniProt P00742).
T1 construct: purchased Cosmo Bio Co., Ltd, Tokyo, Japan
T1 sequence (P00742 235-488 limits assumed): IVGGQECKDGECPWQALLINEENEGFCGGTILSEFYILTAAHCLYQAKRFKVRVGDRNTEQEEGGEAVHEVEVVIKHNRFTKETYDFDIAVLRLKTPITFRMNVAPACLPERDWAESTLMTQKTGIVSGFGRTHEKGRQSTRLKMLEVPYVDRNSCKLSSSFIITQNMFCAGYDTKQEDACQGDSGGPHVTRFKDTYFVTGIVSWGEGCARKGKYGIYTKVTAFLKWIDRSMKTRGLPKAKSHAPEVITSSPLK
T1 sequence (P00742 41-179 partner limits assumed): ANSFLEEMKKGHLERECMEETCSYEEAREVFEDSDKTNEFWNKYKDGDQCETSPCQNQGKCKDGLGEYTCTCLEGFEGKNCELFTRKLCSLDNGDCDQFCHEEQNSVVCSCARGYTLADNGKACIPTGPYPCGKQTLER
The assay can be described thus: Determination of anti-factor Xa activity (chromogenic substrate S-2222). It counts as biochemical. As to conditions: 0.25 unit/ml human factor Xa, 0.4 mM S-2222, tris-HCl buffer pH 8.4, 5 min at room temperature, absorbance 405 nm; read-out: Factor Xa inhibitory activity [IC50 (nM)]. The protocol: Anti-factor Xa activity was determined according to the method of Hara et al. (Thromb. Haemost, 71, 314 (1994), with slight modifications. A 50 mM tris-HCl buffer (pH 8.4) containing 0.9% NaCl, 0.4 mM chromogenic substrate, S-2222 (Daiichi Pure Chemicals Co., Ltd., Tokyo, Japan), and a test compound were mixed, and the reaction was started by adding 0.25 unit/ml human factor Xa (Cosmo Bio Co., Ltd, Tokyo, Japan). Distilled water instead of the test compound was added to the buffer in the control group. The reaction mixture in a total volume of 0.1 ml was incubated for 5 min at room temperature. The absorbance at 405 nm was measured continuously using a 96-well microplate reader (model 550, BioRad), and the increase in absorbance for 5 min was calculated as an index of factor Xa activity.
Regarding `CC(=N)N1CCC(Oc2ccc(N(C/C=C/c3cccc(C(=N)N)c3)S(=O)(=O)CC(=O)O)cc2Cl)CC1` [Example 9, N-[4-(1-Acetimidoylpiperidin-4-yloxy)-3-chlorophenyl]-N-[3-(3-amidinophenyl)-2-(E)-propenyl]sulfamoylacetic Acid Dihydrochloride], the 50% inhibitory concentration (IC50) is 7.4 nM. On the same count and under the same terms, the figure for `CC(=N)N1CCC(Oc2ccc(N(C/C=C/c3cccc(C(=N)N)c3)S(=O)(=O)CC(=O)O)cc2C(C)C)CC1` [Example 34, N-[4-(1-Acetimidoylpiperidin-4-yloxy)-3-isopropylphenyl]-N-[3-(3-amidinophenyl)-2-(E)-propenyl]sulfamoylacetic Acid Dihydrochloride] is 10 nM. On the same count and under the same terms, the figure for `CC(=N)N1CCC(Oc2ccc(N(C/C=C/c3cccc(C(=N)N)c3)S(=O)(=O)CC(=O)O)cc2C)CC1` [Example 55, N-[4-(1-Acetimidoylpiperidin-4-yloxy)-3-methylphenyl]-N-[3-(3-amidinophenyl)-2-(E)-propenyl]sulfamoylacetic Acid Dihydrochloride] is 5 nM; for `CCOC(=O)CS(=O)(=O)N(C/C(F)=C/c1cccc(C(=N)N)c1)c1ccc(OC2CCN(C(C)=N)CC2)cc1` [Example 56, Ethyl N-[4-(1-Acetimidoylpiperidin-4-yloxy)phenyl]-N-[3-(3-amidinophenyl)-2-fluoro-2-(Z)-propenyl]sulfamoylacetate Dihydrochloride] it is 10 nM.

With `CCOC(=O)CN(C/C=C/c1cccc(C(=N)N)c1)c1ccc(OC2CCN(C(C)=N)CC2)cc1` [Example 23, Ethyl 2-[N-[4-(1-Acetimidoylpiperidin-4-yloxy)phenyl]-N-[3-(3-amidinophenyl)-2-(E)-propenyl]amino]acetate Trihydrochloride], the IC50 was 8.3 nM. In the case of `CC(=N)N1CCC(Oc2ccc(N(C/C=C/c3cccc(C(=N)N)c3)CCO)cc2)CC1` [Example 28, 3-[3-[N-[4-(1-Acetimidoylpiperidin-4-yloxy)phenyl]-N-(2-hydroxyethyl)amino]-1-(E)-propenyl]benzamidine Trihydrochloride], the IC50 is 9 nM. Consider `CCOC(=O)CS(=O)(=O)N(C/C=C/c1cc(C(=N)N)ccc1O)c1ccc(OC2CCN(C(C)=N)CC2)c(Cl)c1` [Example 41, Ethyl N-[4-(1-Acetimidoylpiperidin-4-yloxy)-3-chlorophenyl]-N-[3-(5-amidino-2-hydroxyphenyl)-2-(E)-propenyl]sulfamoylacetate Dihydrochloride], for which the IC50 came out at 7.5 nM. On the same count and under the same terms, then `CCOC(=O)CS(=O)(=O)N(C/C=C/c1cccc(C(=N)N)c1)c1cc(F)c(OC2CCN(C(C)=N)CC2)c(F)c1` [Example 46, Ethyl N-[4-(1-Acetimidoylpiperidin-4-yloxy)-3,5-difluorophenyl]-N-[3-(3-amidinophenyl)-2-(E)-propenyl]sulfamoylacetate Dihydrochloride], with 6.8 nM. Still for that read-out and setting: the figure for `CC(=N)N1CCC(Oc2ccc(N(C/C=C/c3cccc(C(=N)N)c3)S(=O)(=O)CC(=O)O)cc2F)CC1` [Example 11, N-[4-(1-Acetimidoylpiperidin-4-yloxy)-3-fluorophenyl]-N-[3-(3-amidinophenyl)-2-(E)-propenyl]sulfamoylacetic Acid Dihydrochloride] is 8.1 nM; for `CCOC(=O)CS(=O)(=O)N(C/C=C/c1cccc(C(=N)N)c1)c1ccc(OC2CCN(C(C)=N)CC2)c(C(=O)OCC)c1` [Example 29, Ethyl N-[4-(1-Acetimidoylpiperidin-4-yloxy)-3-ethoxycarbonylphenyl]-N-[3-(3-amidinophenyl)-2-(E)-propenyl]sulfamoylacetate Dihydrochloride] it is 9 nM; for `CC(=N)N1CCC(Oc2c(Cl)cc(N(C/C=C/c3cccc(C(=N)N)c3)S(=O)(=O)CC(=O)O)cc2Cl)CC1` [Example 49, N-[4-(1-Acetimidoylpiperidin-4-yloxy)-3,5-dichlorophenyl]-N-[3-(3-amidinophenyl)-2-(E)-propenyl]sulfamoylacetic Acid Dihydrochloride] it is 9.8 nM. Same read-out and setting: then `CCOC(=O)CS(=O)(=O)N(C/C=C/c1cccc(C(=N)N)c1)c1ccc(OC2CCN(C(C)=N)CC2)c(Cl)c1` [Example 8, Ethyl N-[4-(1-Acetimidoylpiperidin-4-yloxy)-3-chlorophenyl]-N-[3-(3-amidinophenyl)-2-(E)-propenyl]sulfamoylacetate Dihydrochloride], with 4.5 nM; and `CC(=N)N1CCC(Oc2ccc(N(C/C=C/c3cccc(C(=N)N)c3)C(C)C)cc2)CC1` [Example 22, 3-[3-[N-[4-(1-Acetimidoylpiperidin-4-yloxy)phenyl]-N-isopropylamino]-1-(E)-propenyl]benzamidine Trihydrochloride], with 8.3 nM. For `CC(=N)N1CCC(Oc2ccc(N(CCOc3cccc(C(=N)N)c3)S(=O)(=O)CC(=O)O)cc2)CC1` [Compound A, N-[4-[1-acetimidoyl-4-piperidyloxy]phenyl]-N-[2-(3-amidinophenoxy)ethyl]sulfamoylacetic acid dihydrochloride salt, reference compound], the IC50 came out at 130 nM. Still for that read-out and setting: then `CC(=N)N1CCC(Oc2ccc(N(C/C=C/c3cccc(C(=N)N)c3)S(=O)(=O)CC(=O)O)cc2)CC1` [Example 4, N-[4-(1-Acetimidoylpiperidin-4-yloxy)phenyl]-N-[3-(3-amidinophenyl)-2-(E)-propenyl]sulfamoylacetic Acid Dihydrochloride], with 6.4 nM; and `CCOC(=O)CS(=O)(=O)N(C/C=C/c1cccc(C(=N)N)c1)c1ccc(OC2CCN(C(C)=N)CC2)cc1` [Example 3, Ethyl N-[4-(1-Acetimidoylpiperidin-4-yloxy)phenyl]-N-[3-(3-amidinophenyl)-2-(E)-propenyl]sulfamoylacetate Dihydrochloride], with 8.6 nM.

In the case of `CC(=N)N1CCC(Oc2ccc(N(C/C=C/c3cccc(C(=N)N)c3)S(=O)(=O)CC(=O)O)cc2C(F)(F)F)CC1` [Example 54, N-[4-(1-Acetimidoylpiperidin-4-yloxy)-3-trifluoromethylphenyl]-N-[3-(3-amidinophenyl)-2-(E)-propenyl]sulfamoylacetic Acid Dihydrochloride], the IC50 was 4.6 nM.

In the case of `CCOC(=O)CS(=O)(=O)N(C/C=C/c1cccc(C(=N)N)c1)c1ccc(OC2CCN(C(C)=N)CC2)c(F)c1` [Example 10, Ethyl N-[4-(1-Acetimidoylpiperidin-4-yloxy)-3-fluorophenyl]-N-[3-(3-amidinophenyl)-2-(E)-propenyl]sulfamoylacetate Dihydrochloride], the IC50 came out at 4.6 nM. Take `CNC(=O)c1cc(N(C/C=C/c2cccc(C(=N)N)c2)S(=O)(=O)CC(=O)O)ccc1OC1CCN(C(C)=N)CC1` [Example 38, N-[4-(1-Acetimidoylpiperidin-4-yloxy)-3-(N′-methylcarbamoyl)phenyl]-N-[3-(3-amidinophenyl)-2-(E)-propenyl]sulfamoylacetic Acid Dihydrochloride]: the IC50 is 8.7 nM. Turning to `CC(=N)N1CCC(Oc2ccc(N(C/C=C/c3cccc(C(=N)N)c3)S(=O)(=O)CC(=O)O)cc2C(N)=O)CC1` [Example 36, N-[4-(1-Acetimidolpiperdin-4-yloxy)-3-carbamoylphenyl]-N-[3-(3-amidinophenyl)-2-(E)-propenyl]sulfamoylacetic Acid Dihydrochloride], the IC50 turned out to be 7.1 nM. Still for that read-out and setting: then `CCOC(=O)CS(=O)(=O)N(C/C=C/c1cccc(C(=N)N)c1)c1ccc(OC2CCN(C(C)=N)CC2)c(Br)c1` [Example 31, Ethyl N-[4-(1-Acetimidoylpiperidin-4-yloxy)-3-bromophenyl]-N-[3-(3-amidinophenyl)-2-(E)-propenyl]sulfamoylacetate Dihydrochloride], with 10 nM; and `CC(=N)N1CCC(Oc2ccc(N(C/C(F)=C/c3cccc(C(=N)N)c3)S(=O)(=O)CC(=O)O)cc2)CC1` [Example 57, N-[4-(1-Acetimidoylpiperidin-4-yloxy)phenyl]-N-[3-(3-amidinophenyl)-2-fluoro-2-(Z)-propenyl]sulfamoylacetic Acid Dihydrochloride], with 9.3 nM; and `CC(=N)N1CCC(Oc2c(F)cc(N(C/C=C/c3cccc(C(=N)N)c3)S(=O)(=O)CC(=O)O)cc2F)CC1` [Example 47, N-[4-(1-Acetimidoylpiperidin-4-yloxy)-3,5-difluorophenyl]-N-[3-(3-amidinophenyl)-2-(E)-propenyl]sulfamoylacetic Acid Dihydrochloride], with 3.7 nM.

For the next assay, the target named is T2, bovine trypsin (Bos taurus, UniProt P00760).
T2 construct: purchased Sigma
T2 sequence (P00760 24-246): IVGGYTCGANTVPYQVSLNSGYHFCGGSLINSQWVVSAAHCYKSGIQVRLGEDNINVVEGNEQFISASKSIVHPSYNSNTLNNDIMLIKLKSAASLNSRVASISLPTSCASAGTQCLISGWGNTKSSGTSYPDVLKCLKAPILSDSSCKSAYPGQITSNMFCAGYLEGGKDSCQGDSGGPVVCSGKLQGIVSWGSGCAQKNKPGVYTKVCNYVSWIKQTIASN
The assay can be described thus: Determination of anti-trypsin activity (chromogenic substrate S-2222). It counts as biochemical. As to conditions: bovine trypsin 0.25 μg-protein/ml, 0.4 mM S-2222, tris-HCl buffer pH 8.4, room temperature, 5 min, absorbance 405 nm. On the procedure:
Anti-trypsin activity was determined according to the method of Taniuchi et al. [Thromb. Haemost., 79, 543 (1998)] with slight modifications. First, 85 μl of a 50 mM tris-HCl buffer (pH 8.4) containing 0.9% NaCl, 5 μl of chromogenic substrate, S-2222 (final concentration of 0.4 mM, Daiichi Pure Chemicals Co., Ltd., Tokyo, Japan) and 5 μl of a test compound were mixed, and the reaction was started by adding 5 μl of bovine trypsin (final concentration of 0.25 μg-protein/ml, Sigma). Distilled water instead of the test compound was added to the buffer in the control group. The reaction mixture in a total volume of 0.1 ml was incubated at room temperature. The absorbance at 405 nm was measured continuously using a 96-well microplate reader (model 550, BioRad), and the increase in absorbance for 5 min was calculated as an index of trypsin activity.
`CC(=N)N1CCC(Oc2ccc(N(C/C=C/c3cccc(C(=N)N)c3)S(=O)(=O)CC(=O)O)cc2Cl)CC1` [Example 9, N-[4-(1-Acetimidoylpiperidin-4-yloxy)-3-chlorophenyl]-N-[3-(3-amidinophenyl)-2-(E)-propenyl]sulfamoylacetic Acid Dihydrochloride] gave an IC50 of 520 nM. Molecule `CC(=N)N1CCC(Oc2ccc(N(C/C=C/c3cccc(C(=N)N)c3)S(=O)(=O)CC(=O)O)cc2F)CC1` [Example 11, N-[4-(1-Acetimidoylpiperidin-4-yloxy)-3-fluorophenyl]-N-[3-(3-amidinophenyl)-2-(E)-propenyl]sulfamoylacetic Acid Dihydrochloride] showed a 50% inhibitory concentration (IC50) of 840 nM.
